The values that follow come from ChEMBL document CHEMBL1201862, “PubChem BioAssay data set” (2004).

SMILES strings stand for the structures. Active and inactive are the calls of the source. Where only a bound is given, the exact number is not on record here.

One assay has as its target SUMO-activating enzyme (Homo sapiens, UniProt Q9UBT2). Put plainly: SUMOylation inhibitor hit validation, confirmation, SUMOylation inhibitor project, biochemical, AlphaScreen (AID 2018). Type of assay: functional. For orientation: In Alpha technology, singlet oxygen from a donor bead excites a nearby acceptor bead.
The target in assay [1] is Cyclin-dependent kinase 8 (Homo sapiens, UniProt P49336). The experiment in a line: Navigating the Kinome. Panel member name: CDK8. Type of assay: functional.
Chain of Cyclin-dependent kinase 8 (P49336 whole entry): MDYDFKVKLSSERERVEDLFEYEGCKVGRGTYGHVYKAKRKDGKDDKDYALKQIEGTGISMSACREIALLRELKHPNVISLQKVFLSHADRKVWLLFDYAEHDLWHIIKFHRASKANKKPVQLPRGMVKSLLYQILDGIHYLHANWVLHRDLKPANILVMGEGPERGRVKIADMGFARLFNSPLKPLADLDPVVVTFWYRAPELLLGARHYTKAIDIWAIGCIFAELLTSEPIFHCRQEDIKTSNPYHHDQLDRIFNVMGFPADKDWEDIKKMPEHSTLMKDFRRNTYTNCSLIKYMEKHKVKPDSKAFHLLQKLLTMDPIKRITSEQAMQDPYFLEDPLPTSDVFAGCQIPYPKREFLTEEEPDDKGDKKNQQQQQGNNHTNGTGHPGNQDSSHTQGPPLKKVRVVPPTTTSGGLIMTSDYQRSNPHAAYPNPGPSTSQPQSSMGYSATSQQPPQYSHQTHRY
Assay [2] has as its target Mitogen-activated protein kinase kinase kinase kinase 4 (Homo sapiens, UniProt O95819). Type of assay: functional.
For assay [3], the target named is Inhibitor of nuclear factor kappa-B kinase subunit epsilon (Homo sapiens, UniProt Q14164). The experiment in a line: Navigating the Kinome. Panel member name: IKBKE. Format: functional.
Chain of Inhibitor of nuclear factor kappa-B kinase subunit epsilon (Q14164 whole entry): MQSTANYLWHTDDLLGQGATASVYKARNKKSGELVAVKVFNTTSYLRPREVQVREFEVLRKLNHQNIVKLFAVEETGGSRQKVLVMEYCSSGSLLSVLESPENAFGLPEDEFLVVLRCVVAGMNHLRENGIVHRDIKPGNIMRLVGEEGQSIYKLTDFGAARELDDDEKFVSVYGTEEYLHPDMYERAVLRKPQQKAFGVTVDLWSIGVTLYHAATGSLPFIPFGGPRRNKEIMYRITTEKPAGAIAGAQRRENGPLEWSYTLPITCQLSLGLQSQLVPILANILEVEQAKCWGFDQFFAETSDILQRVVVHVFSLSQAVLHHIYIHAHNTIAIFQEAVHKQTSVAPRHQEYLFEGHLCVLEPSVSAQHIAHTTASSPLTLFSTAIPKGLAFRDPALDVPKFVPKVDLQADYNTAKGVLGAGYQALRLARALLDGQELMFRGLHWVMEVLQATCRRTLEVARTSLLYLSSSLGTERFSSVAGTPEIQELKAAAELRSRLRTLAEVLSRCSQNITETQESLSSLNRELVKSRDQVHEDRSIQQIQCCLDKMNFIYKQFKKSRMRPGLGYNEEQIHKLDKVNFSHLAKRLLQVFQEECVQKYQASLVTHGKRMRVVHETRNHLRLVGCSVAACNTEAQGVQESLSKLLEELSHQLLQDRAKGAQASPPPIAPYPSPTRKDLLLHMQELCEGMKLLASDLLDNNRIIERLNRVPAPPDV
The next assay concerns the target Focal adhesion kinase 1 (Homo sapiens, UniProt Q05397). Type of assay: functional.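 Also: measured as one member of a kinome panel.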
Assay [4] deals with Vascular endothelial growth factor receptor 1 (Homo sapiens, UniProt P17948). Type of assay: functional.
Chain of Vascular endothelial growth factor receptor 1 (P17948 whole entry): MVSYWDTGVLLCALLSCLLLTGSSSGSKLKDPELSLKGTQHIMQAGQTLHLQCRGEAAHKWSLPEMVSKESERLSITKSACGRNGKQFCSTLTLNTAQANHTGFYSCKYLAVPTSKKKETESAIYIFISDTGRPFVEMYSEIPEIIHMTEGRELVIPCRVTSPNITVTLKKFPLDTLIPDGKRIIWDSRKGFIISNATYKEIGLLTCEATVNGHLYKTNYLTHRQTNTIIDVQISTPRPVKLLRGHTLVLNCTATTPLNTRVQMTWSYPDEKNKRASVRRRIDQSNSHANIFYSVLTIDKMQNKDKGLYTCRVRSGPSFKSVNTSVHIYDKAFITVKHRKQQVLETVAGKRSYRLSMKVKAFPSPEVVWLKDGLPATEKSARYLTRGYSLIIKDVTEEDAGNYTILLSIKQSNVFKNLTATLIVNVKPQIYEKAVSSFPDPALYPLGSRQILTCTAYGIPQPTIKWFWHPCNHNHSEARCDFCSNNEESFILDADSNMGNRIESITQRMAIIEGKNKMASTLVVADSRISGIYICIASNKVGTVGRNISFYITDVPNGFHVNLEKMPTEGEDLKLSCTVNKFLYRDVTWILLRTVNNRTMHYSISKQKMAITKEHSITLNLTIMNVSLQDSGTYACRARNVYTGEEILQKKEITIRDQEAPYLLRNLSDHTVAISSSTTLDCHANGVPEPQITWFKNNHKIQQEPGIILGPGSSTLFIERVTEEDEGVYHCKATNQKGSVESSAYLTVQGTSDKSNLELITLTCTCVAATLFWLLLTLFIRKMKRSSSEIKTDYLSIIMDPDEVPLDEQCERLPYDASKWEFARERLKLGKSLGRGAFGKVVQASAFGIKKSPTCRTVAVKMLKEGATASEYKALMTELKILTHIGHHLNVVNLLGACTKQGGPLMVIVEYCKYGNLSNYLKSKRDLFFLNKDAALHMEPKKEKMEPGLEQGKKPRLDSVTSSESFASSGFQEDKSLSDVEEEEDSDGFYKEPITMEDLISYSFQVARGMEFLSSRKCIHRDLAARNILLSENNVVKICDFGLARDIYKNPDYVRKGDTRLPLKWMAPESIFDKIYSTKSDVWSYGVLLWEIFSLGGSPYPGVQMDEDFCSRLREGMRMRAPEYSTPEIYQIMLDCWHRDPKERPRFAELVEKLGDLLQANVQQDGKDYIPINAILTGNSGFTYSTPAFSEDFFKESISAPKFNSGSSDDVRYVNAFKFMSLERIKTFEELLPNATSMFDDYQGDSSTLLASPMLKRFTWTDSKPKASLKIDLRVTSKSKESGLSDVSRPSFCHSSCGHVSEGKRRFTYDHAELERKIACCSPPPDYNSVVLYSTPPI
Assay [5] deals with T1, 1-phosphatidylinositol 4,5-bisphosphate phosphodiesterase gamma-1 (Homo sapiens, UniProt P19174).
T1 sequence (P19174 whole entry): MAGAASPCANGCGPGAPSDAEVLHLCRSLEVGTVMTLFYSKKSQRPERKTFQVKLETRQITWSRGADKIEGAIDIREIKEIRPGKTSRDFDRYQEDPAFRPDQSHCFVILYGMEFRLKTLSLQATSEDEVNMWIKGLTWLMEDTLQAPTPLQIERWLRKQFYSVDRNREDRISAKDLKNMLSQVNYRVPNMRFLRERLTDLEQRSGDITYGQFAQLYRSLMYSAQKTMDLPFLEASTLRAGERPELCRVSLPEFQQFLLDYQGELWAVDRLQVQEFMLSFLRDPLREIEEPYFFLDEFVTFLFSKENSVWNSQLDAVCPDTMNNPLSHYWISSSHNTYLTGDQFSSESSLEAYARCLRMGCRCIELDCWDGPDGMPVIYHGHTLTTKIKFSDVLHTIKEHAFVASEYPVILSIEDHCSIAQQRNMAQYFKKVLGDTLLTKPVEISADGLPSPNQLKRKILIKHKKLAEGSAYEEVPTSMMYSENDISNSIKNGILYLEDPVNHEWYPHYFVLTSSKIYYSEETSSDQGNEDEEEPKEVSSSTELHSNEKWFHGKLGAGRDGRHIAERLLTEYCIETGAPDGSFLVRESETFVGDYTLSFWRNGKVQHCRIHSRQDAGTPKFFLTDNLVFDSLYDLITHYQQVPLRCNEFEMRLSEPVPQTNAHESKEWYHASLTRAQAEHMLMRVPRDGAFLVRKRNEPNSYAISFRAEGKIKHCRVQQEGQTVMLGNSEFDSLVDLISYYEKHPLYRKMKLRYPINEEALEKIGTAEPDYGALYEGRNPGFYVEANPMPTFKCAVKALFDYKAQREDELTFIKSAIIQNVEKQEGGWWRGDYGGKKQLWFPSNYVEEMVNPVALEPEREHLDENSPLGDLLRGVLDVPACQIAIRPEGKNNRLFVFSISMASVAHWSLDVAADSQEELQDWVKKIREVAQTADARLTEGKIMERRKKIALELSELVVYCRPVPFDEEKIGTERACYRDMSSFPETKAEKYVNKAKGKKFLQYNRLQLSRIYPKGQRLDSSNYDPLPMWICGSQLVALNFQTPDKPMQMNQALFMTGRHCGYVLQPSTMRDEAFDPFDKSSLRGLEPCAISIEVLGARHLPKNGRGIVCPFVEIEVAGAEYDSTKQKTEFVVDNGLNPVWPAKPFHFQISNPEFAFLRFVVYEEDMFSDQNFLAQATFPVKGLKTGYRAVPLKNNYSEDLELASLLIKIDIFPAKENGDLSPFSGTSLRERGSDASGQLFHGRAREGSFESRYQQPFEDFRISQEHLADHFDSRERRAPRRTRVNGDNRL
The experiment in a line: Counterscreen for inhibitors of phospholipase C isozymes (PLC-B3): Fluorescence-based biochemical high throughput dose response assay to identify inhibitors of phospholipase C isozymes (PLC-gamma1). (In general: Counterscreens check selectivity or assay interference.)

The target in assay [6] is T2, 1-phosphatidylinositol 4,5-bisphosphate phosphodiesterase beta-3 (Homo sapiens, UniProt Q01970).
T2 sequence (Q01970 whole entry): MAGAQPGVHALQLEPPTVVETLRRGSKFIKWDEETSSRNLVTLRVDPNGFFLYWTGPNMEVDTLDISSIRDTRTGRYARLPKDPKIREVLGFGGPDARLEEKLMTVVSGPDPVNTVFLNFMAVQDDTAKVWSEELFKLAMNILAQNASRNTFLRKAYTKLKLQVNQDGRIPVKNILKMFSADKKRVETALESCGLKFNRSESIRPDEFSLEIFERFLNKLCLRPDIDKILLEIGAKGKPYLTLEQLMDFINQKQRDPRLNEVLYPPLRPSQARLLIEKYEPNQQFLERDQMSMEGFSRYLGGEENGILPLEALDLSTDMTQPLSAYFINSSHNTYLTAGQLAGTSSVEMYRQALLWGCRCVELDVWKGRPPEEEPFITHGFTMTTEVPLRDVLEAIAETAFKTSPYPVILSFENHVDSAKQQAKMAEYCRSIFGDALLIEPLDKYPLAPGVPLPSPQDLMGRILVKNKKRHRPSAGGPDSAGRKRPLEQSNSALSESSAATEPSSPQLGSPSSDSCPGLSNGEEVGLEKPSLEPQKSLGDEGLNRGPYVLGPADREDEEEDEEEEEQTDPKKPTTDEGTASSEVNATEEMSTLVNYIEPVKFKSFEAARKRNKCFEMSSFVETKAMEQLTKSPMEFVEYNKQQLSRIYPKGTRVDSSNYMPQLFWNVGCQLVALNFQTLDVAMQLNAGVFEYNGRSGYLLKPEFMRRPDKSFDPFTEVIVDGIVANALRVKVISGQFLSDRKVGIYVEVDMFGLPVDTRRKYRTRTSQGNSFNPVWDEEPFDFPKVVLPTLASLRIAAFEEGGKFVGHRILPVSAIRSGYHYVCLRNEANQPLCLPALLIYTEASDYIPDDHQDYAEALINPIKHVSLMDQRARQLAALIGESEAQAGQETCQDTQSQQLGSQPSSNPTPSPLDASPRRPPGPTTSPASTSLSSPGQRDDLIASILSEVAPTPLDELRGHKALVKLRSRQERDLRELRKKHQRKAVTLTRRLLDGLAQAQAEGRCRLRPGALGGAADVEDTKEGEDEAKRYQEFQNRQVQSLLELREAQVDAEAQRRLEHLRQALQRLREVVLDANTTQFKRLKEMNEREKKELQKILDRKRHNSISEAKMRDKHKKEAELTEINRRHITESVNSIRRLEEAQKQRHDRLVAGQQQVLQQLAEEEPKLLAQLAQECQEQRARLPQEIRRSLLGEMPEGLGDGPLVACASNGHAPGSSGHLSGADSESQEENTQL
Put plainly: Fluorescence-based biochemical high throughput dose response assay to identify inhibitors of phospholipase C isozymes (PLC-B3).

Chain of Mitogen-activated protein kinase kinase kinase kinase 4 (O95819 whole entry): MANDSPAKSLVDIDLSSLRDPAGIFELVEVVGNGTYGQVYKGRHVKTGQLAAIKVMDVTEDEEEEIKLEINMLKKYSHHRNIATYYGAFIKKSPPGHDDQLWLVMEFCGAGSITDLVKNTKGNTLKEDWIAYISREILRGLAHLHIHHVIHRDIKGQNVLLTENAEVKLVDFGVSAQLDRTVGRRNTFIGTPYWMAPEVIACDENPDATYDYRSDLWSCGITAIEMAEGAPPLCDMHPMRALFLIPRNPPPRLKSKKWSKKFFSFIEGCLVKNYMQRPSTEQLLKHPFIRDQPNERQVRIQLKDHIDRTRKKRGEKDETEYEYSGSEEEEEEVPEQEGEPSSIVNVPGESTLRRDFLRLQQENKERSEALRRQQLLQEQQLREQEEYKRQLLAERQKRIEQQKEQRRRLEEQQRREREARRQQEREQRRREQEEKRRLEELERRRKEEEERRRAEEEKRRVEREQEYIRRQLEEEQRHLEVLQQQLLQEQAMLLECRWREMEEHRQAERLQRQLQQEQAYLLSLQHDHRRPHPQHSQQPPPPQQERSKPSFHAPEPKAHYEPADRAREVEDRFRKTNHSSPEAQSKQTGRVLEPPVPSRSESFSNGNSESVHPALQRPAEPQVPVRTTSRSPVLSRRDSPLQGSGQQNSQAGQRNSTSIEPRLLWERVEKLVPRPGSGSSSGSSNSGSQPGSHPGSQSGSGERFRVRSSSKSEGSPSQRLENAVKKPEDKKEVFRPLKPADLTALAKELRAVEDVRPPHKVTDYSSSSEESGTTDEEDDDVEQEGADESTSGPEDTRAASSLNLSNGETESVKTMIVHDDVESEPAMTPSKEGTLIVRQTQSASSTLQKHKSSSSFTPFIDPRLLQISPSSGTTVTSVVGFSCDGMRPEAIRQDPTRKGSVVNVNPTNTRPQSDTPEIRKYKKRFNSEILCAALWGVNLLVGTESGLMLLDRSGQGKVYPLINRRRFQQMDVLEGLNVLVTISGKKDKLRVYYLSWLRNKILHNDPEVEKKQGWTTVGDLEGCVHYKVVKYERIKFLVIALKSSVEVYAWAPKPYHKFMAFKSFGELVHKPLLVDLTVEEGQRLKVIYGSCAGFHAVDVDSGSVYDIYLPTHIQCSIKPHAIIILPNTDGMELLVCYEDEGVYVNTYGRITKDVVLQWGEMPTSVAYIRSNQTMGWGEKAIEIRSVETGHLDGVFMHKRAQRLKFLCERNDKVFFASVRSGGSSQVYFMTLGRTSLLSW
Chain of Focal adhesion kinase 1 (Q05397 whole entry): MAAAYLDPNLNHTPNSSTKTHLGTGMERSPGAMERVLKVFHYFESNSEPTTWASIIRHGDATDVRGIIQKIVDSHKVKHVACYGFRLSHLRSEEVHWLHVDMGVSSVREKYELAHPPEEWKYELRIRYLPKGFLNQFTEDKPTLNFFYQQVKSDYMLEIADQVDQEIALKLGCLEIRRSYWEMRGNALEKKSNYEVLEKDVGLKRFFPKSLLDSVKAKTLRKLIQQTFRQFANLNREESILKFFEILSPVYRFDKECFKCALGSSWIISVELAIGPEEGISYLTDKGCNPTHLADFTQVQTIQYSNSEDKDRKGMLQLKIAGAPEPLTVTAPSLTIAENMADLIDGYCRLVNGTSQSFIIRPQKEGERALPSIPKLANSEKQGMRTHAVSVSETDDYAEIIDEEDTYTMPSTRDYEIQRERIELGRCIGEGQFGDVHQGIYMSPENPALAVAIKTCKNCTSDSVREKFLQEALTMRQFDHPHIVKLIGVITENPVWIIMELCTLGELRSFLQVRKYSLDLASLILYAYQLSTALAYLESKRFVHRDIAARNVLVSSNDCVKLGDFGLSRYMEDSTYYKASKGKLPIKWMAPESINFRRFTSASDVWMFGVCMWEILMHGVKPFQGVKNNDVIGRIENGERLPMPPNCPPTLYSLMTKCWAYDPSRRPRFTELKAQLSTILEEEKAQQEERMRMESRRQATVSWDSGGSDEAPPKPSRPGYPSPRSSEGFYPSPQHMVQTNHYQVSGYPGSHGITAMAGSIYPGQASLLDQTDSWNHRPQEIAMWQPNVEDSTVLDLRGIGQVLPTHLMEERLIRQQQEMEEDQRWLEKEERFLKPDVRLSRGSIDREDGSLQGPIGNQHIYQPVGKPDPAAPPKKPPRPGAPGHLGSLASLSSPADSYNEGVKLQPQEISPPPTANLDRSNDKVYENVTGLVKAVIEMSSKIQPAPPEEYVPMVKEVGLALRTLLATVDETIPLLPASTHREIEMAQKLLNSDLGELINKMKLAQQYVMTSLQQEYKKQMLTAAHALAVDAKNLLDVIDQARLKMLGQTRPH

With `CC(=O)N(C1=C(Cl)C(=O)c2ccccc2C1=O)c1ccc(C(=O)O)cc1`, at SUMO-activating enzyme, the IC50 is 3.77 µM (active).

As to `Cc1ccc(-c2cc3nc(Br)cnc3[nH]2)cc1`, the Ki is > 3.98 µM (inactive) in assay [1]; > 5.01 µM (inactive) in assay [2]; > 3.16 µM (inactive) in assay [3]; > 6.31 µM (inactive) at Focal adhesion kinase 1; > 3.98 µM (inactive) in assay [4].

Turning to `O=C1C=C(O)c2c(O)cc(O)c(O)c2C1=O`, the values for the IC50 in assay [5] and in assay [6] were > 40.8 µM (inactive) and > 122 µM (inactive), respectively.

In general, IC50 refers to the concentration at which inhibition is half-maximal. For orientation: Ki means a dissociation constant, usually derived from enzyme kinetics or from competition with a known ligand.
